Like-named read-outs stand apart in the source and are kept apart here.

Consider 69 compounds from patent US20210115036A1, “AZAINDOLES AND METHODS OF USE THEREOF” (GOLDFINCH BIO, INC., priority 2017, published 2021).

In the test the target is T1, human TRPC5 (Homo sapiens, UniProt Q9UL62).
T1 construct: expressed in transfected cells; host or cells: HEK 293
T1 sequence (Q9UL62 1-973): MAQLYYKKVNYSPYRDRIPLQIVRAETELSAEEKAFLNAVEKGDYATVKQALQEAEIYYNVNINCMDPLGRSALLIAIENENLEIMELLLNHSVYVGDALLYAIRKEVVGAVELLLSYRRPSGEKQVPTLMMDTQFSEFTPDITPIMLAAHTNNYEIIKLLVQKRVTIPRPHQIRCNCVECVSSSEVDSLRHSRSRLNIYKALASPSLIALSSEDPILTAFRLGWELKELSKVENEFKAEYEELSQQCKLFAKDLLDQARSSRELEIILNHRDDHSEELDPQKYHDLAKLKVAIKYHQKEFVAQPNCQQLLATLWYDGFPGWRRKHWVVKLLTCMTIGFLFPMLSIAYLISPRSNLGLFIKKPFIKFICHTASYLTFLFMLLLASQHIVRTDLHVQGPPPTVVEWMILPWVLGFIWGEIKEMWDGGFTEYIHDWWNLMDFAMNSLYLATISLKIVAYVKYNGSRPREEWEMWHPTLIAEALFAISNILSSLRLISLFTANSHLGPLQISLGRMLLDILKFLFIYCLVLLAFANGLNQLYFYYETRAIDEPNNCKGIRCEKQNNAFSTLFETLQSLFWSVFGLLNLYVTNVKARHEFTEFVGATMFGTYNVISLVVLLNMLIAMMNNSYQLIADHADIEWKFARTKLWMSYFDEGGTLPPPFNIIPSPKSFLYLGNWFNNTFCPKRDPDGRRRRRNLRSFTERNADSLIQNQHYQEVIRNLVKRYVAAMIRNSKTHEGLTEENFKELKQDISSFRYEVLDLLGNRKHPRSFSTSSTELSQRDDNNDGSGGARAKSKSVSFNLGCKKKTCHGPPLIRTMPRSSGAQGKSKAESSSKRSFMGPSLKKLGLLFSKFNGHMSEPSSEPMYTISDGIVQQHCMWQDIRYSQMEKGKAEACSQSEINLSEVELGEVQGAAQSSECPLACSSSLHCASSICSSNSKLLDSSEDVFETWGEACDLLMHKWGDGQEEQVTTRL
The test is described as follows: Automated patch clamp assay (QPatch), current block after stimulation with rosiglitazone. Particulars: HEK293 cells overexpressing TRPC5, whole cell automated patch. The test is classed as cell-based. The protocol: HEK 293 cells expressing human TRPC5 were harvested, re-suspended in serum free medium, and added to the automated platform and used within 2-3 hours. Internal and external physiological solutions were freshly prepared prior to the assay. The external solution contained: 145 mM NaCl, 4 mM KCl, 2 mM CaCl2), 1 mM MgCl2, 10 mM HEPES, 10 mM glucose, pH 7.4 with NaOH and 300 mOsm/L. The internal solution contained 120 mM L-aspartic acid, 120 mM CsOH.H2O, 20 mM CsCl, 2 mM MgCl2, 8.8 mM CaCl2), 10 mM EGTA, 10 mM HEPES, 10 mM Glucose, 0.1 mM GTP and 2 mM Na2ATP; pH 7.2 with CsOH and 290 mOsm/L. The free internal Ca2+ concentration was buffered to 1 μM.
The automated electrophysiological platform QPatch 16 from Sophion (Denmark) was used to carry out the compounds profiling. The series resistance and quality of seals were continuously monitored during the experiments. Data was analyzed using Sophion QPatch assay software 5.6 (Odense). IC50 values were calculated using a least squares regression algorithm (Hill equation).
To monitor the ion currents, a voltage ramp from −100 mV to +100 mV, over 300 ms, was applied every 10 seconds, from a holding potential of −60 mV.
After recording for a minimum of 60 seconds control period, Rosiglitazone (30 uM), was applied to activate the channel.
On the technique in general: In patch-clamp work, channel activity is measured electrically.

The mark [1] stands for this setting: 80 mV, 1-substituted 7-azaindoles, read-out: TRPC5 IC50 80 mV.
Where [2] appears, read: 100 mV, 7-substituted 7-azaindoles, read-out: TRPC5 IC50 100 mV.
[3] abbreviates: 100 mV, 1-substituted 7-azaindoles, read-out: TRPC5 IC50 100 mV.

By IC50 is commonly meant the midpoint of a concentration-inhibition curve. Take `CC(C)(C)c1cc2cccnc2n1CC1CCCCC1`: the IC50 under setting [1] was over 30 µM. With `Cc1nn(C)cc1Cn1cccc2cc(C(C)(C)C)nc1-2`, the IC50 under setting [2] is 17.6 µM. `CN(C)Cc1cc2cccnc2n1Cc1ccccc1`: the IC50 is 18.3 µM under setting [1] and 21.6 µM under setting [3]. As to `CC(C)(C)c1cc2cc(OCCCO)cnc2n1Cc1ccccc1`, the IC50 was over 30 µM under setting [1] and over 30 µM under setting [3]. As to `CC(C)(C)c1cc2c(OCCCO)ccnc2n1Cc1ccccc1`, the IC50 is over 30 µM under setting [1] and over 30 µM under setting [3].

With `CC(C)(C)c1cc2cccnc2n1C[C@H]1CC[C@H](C)CC1` [drawing 112], the IC50 under setting [1] is over 30 µM. Regarding `Cn1cc(Cn2c(C(C)(C)C)cc3cccnc32)cn1`, the IC50 runs as follows: under setting [1], over 30 µM; under setting [3], over 30 µM. Turning to `Cc1ncc(Cn2c(C(C)(C)C)cc3cccnc32)cn1`, the IC50 under setting [1] was over 30 µM. As for `COC(C)(C)Cc1cc2cccnc2n1Cc1ccccc1`, the IC50 runs as follows: under setting [1], 13.8 µM; under setting [3], 8.52 µM. As for `CN1CCC(Cn2c(C(C)(C)C)cc3cccnc32)CC1`, the IC50 under setting [1] was over 30 µM. In the case of `COc1ccc(Cn2cccc3cc(C(C)(C)C)nc2-3)cc1`, under setting [2], the IC50 turned out to be 5.47 µM. In the case of `CC(C)(C)c1cc2cccnc2n1CC1CCNCC1`, under setting [1], the IC50 was over 30 µM. In the case of `CC(C)(C)c1cc2cccn(C[C@H]3CC[C@H](C)CC3)c-2n1` [drawing 138], the IC50 under setting [2] stood at 24.5 µM. On to `COCCc1cc2cccnc2n1Cc1ccccc1`, for which the IC50 was over 30 µM under setting [1] and over 30 µM under setting [3].

As for `CC(C)(C)c1cc2cccn(Cc3ccc(Cl)cc3)c-2n1` [drawing 125], the IC50 under setting [2] is 6.02 µM. With `C[C@@H](c1ccccc1)n1c(C(C)(C)C)cc2cccnc21`, the IC50 under setting [1] is over 30 µM and the IC50 under setting [3] was over 30 µM. For the compound `Cn1cc(Cn2c(C(C)(C)C)cc3cccnc32)c(C(F)(F)F)n1`, the IC50 is over 30 µM under setting [1] and over 30 µM under setting [3].

Consider `Cc1noc(C)c1Cn1cccc2cc(C(C)(C)C)nc1-2`, for which the IC50 under setting [2] came out at 15.6 µM. On the same count and under the same terms, in the case of `COc1cccc(Cn2cccc3cc(C(C)(C)C)nc2-3)c1` [drawing 128] it was 8.57 µM; in that of `Cn1nc(C(F)(F)F)cc1Cn1cccc2cc(C(C)(C)C)nc1-2`, 12.2 µM. On to `Cc1nn(C)cc1Cn1c(C(C)(C)C)cc2cccnc21`, for which the IC50 is over 30 µM under setting [1] and over 30 µM under setting [3].

For `CC(C)Cc1cc2cccnc2n1Cc1ccccc1` [drawing 73], under setting [3], the IC50 was over 30 µM.

For `CC(C)Cc1cc2cccnc2n1Cc1ccccc1` [drawing 72], the IC50 under setting [1] was over 30 µM.

Turning to `Cc1ccc2cc(C(C)(C)C)n(Cc3ccccc3)c2n1`, the IC50 under setting [1] is over 30 µM.

In the case of `CC(C)(C)c1cc2cccnc2n1Cc1ccccc1` [drawing 63], the IC50 under setting [1] is 3.51 µM. Same read-out and setting: in the case of `CC(c1ccccc1)n1c(C(C)(C)C)cc2cccnc21` (stereo not shown) it was over 30 µM. In the case of `CC(C)(C)c1cc2cccnc2n1Cc1ccccc1` [drawing 65], under setting [1], the IC50 worked out at 7.07 µM.

For `COC(C)(C)c1cc2cccnc2n1Cc1ccccc1`, the IC50 was over 30 µM under setting [1] and over 30 µM under setting [3]. As for `Cc1cc2cccnc2n1Cc1ccccc1`, the IC50 under setting [1] was over 30 µM. With `COc1ccc(Cn2c(C(C)(C)C)cc3cccnc32)cc1`, the IC50 under setting [1] was over 30 µM and the IC50 under setting [3] is over 30 µM.

`CC(C)(C)c1cc2cccnc2n1CC1CCOCC1`: the IC50 under setting [1] was over 30 µM. On to `CC(C)(C)c1cc2cccnc2n1Cc1ccc(Cl)cc1C#N`, for which the IC50 under setting [1] is over 30 µM. On the same count and under the same terms, in the case of `CC(=O)N1CCC(Cn2c(C(C)(C)C)cc3cccnc32)CC1` it was over 30 µM. In the case of `CC(C)(O)c1cc2cccnc2n1Cc1ccccc1` [drawing 81], the IC50 under setting [3] was over 30 µM. Consider `CC(C)(C)c1cc2ccc(OCCCO)nc2n1Cc1ccccc1`, for which, under setting [1], the IC50 was over 30 µM. Regarding `COc1cccc(Cn2cccc3cc(C(C)(C)C)nc2-3)c1` [drawing 130], the IC50 under setting [2] was 10.2 µM. `Cc1cc2cccnc2n1Cc1ccc(Cl)cc1`: the IC50 under setting [1] was over 30 µM. Same read-out and setting: next, `CC(C)(C)c1cc2cccnc2n1CCCc1ccccc1`: over 30 µM.

In the case of `CC(C)(C)c1cc2cccn(Cc3cccnc3)c-2n1` [drawing 133], under setting [2], the IC50 was determined as 14 µM. As for `CC(C)(C)Cc1cc2cccnc2n1Cc1ccccc1`, the IC50 reads like this: under setting [1], over 30 µM; under setting [3], over 30 µM. `CC(C)(C)c1cc2ccc(OCCO)nc2n1Cc1ccccc1`: under setting [1], the IC50 was over 30 µM. The same measure, in the same setting: next, `CC(C)(C)c1cc2cccnc2n1Cc1ccc(Cl)cn1`: over 30 µM. For `C[C@H](c1ccccc1)n1c(C(C)(C)C)cc2cccnc21`, the IC50 runs as follows: under setting [1], over 30 µM; under setting [3], over 30 µM. Take `Clc1ccc(Cn2c(CN3CCCC3)cc3cccnc32)cc1`: the IC50 by setting is: under setting [1], 23.6 µM; under setting [3], 25.2 µM. Regarding `CC(C)(C)c1cc2cccn(Cc3ccncc3)c-2n1`, the IC50 under setting [2] is over 30 µM. As for `Cn1cc(Cn2cccc3cc(C(C)(C)C)nc2-3)c(C(F)(F)F)n1`, under setting [2], the IC50 worked out at 10.4 µM. As for `CC(C)(C)c1cc2cccnc2n1Cc1ccncc1`, the IC50 was over 30 µM under setting [1] and over 30 µM under setting [3]. With `CC(C)(O)Cc1cc2cccnc2n1Cc1ccccc1`, the IC50 is, setting by setting: under setting [1], over 30 µM; under setting [3], over 30 µM. Turning to `CC(C)(C)c1cc2cccnc2n1Cc1ccc(Cl)cc1`, the IC50 under setting [1] is over 30 µM. Regarding `CC(C)(C)c1cc2cccn(Cc3cncc(F)c3)c-2n1`, under setting [2], the IC50 was 7.64 µM. Regarding `CC(C)(C)c1cc2cccnc2n1Cc1cccnc1`, the IC50 was over 30 µM under setting [1] and over 30 µM under setting [3].

`OCCc1cc2cccnc2n1Cc1ccccc1`: the IC50 is over 30 µM under setting [1] and over 30 µM under setting [3]. With `Cc1ccnc2c1cc(C(C)(C)C)n2Cc1ccccc1`, the IC50 under setting [1] is over 30 µM.

With `CC(C)(C)c1cc2cccnc2n1CCOc1ccccc1`, under setting [1], the IC50 is over 30 µM. Still for that read-out and setting: next, `CC(C)(C)c1cc2cccnc2n1CCc1ccccc1`: over 30 µM. Turning to `Cn1nc(C(F)(F)F)cc1Cn1c(C(C)(C)C)cc2cccnc21`, the IC50 by setting is: under setting [1], 19.6 µM; under setting [3], 19.1 µM. The corresponding values for `OCc1cc2cccnc2n1Cc1ccccc1` are over 30 µM and over 30 µM. The like results for `CCN(CC)Cc1cc2cccnc2n1Cc1ccccc1` were, in that order, 6.24 µM and 4.19 µM.

As to `CC(C)(C)c1cc2cccnc2n1Cc1cncc(F)c1`, the IC50 by setting is: under setting [1], over 30 µM; under setting [3], over 30 µM. For `COc1cccc(Cn2c(C(C)(C)C)cc3cccnc32)c1`, the IC50 was over 30 µM under setting [1] and over 30 µM under setting [3]. For `CC(C)(C)c1cc2cccn(Cc3cccnc3)c-2n1` [drawing 134], under setting [2], the IC50 was 14.4 µM. For `c1ccc(Cn2c(CN3CCCC3)cc3cccnc32)cc1`, the IC50 under setting [1] worked out at 17 µM and the IC50 under setting [3] was 16.6 µM.

As for `Cc1noc(C)c1Cn1c(C(C)(C)C)cc2cccnc21`, the IC50 reads like this: under setting [1], over 30 µM; under setting [3], over 30 µM.

On to `CC(C)(C)c1cc2cccn(Cc3ccc(Cl)cc3)c-2n1` [drawing 127], for which, under setting [2], the IC50 is 8.1 µM. On to `Cc1ccc2cc(C(C)(C)C)n(C(=O)c3ccccc3)c2n1`, for which the IC50 under setting [1] was over 30 µM.

`COc1cc(Cl)ccc1Cn1c(C(C)(C)C)cc2cccnc21`: the IC50 under setting [1] is over 30 µM. As to `CC(C)(O)c1cc2cccnc2n1Cc1ccccc1` [drawing 80], under setting [1], the IC50 was over 30 µM.

As to `CC(C)(C)c1cc2cccnc2n1C[C@H]1CC[C@H](C)CC1` [drawing 113], under setting [3], the IC50 is over 30 µM. `CC(C)(C)c1cc2cccnc2n1CC1CCN(S(C)(=O)=O)CC1`: the concentration for half-maximal inhibition (IC50) under setting [1] is over 30 µM.
